Laboratory results published in patent US20220242861A1, “IMIDAZOPYRIDINYL COMPOUNDS AND USE THEREOF FOR TREATMENT OF PROLIFERATIVE DISORDERS” (1ST Biotherapeutics, Inc., priority 2019, published 2022).

Columns and labels:
recombinant human c-Kit = target: T1, recombinant human c-Kit (Homo sapiens, UniProt P10721); test: c-Kit Kinase Assay (ADP-Glo); format: biochemical; details: In vitro kinase activity
T1 construct: purchased Signalchem
Procedure: (§1) ADP-Glo assay kit was purchased from Promega. Magnesium chloride (MgCl2), ethylene glycol-bis(8-aminoethyl ether)-N,N,N′,N′-tetraacetic acid (EGTA), manganese (II) chloride (MnCl2), bovine serum albumin (BSA), 1,4-dithiothreitol (DTT) and dimethyl sulfoxide (DMSO) were purchased from Sigma-Aldrich. HEPES buffer was purchased from Gibco. c-Kit kinase and poly (4:1 Glu, Tyr) peptide were purchased from Signalchem.
(§2) c-Kit kinase activity was measured by Promega's ADP-Glo™ Assay. In this assay, 100ng of recombinant human c-Kit is incubated with 5 μL of compounds (0.5% DMSO), 5 μL of Poly (4:1 Glu, Tyr) peptide (50 ng/μl) and 5 μL of ATP (50 μM) in buffer (50 mM HEPES, pH7.5; 10 mM MgCl2; 1 mM EGTA; 0.05% BSA; 50μM DTT; 2mM MnCl2). The assay was started by incubating the reaction mixture in a 96-well plate at 30° C. for 120-min. After the incubation, 25 μL ADP-Glo reagent was added and the reaction was incubated at room temperature for 40-min to stop the reaction and degrade residual ATP. The ADP product was then converted to ATP by adding 50 μL per well of detection reagent. Luminescence was detected after 30-min room temperature incubation with the Molecular device I3X plate reader. The IC50 values were calculated from a series of percent inhibition values determined at a range of inhibitor concentration using software routines as implemented in the GraphPad Prism 8 software and Sigma Plot 13.0.

[1] = target: T2, recombinant human c-Kit (D816V) (Homo sapiens, UniProt P10721, D816V); test: c-Kit (D816V) Kinase Assay (ADP-Glo); format: biochemical; details: In vitro kinase activity
T2 construct: purchased Signalchem
T2 sequence (P10721 26-976 D816V): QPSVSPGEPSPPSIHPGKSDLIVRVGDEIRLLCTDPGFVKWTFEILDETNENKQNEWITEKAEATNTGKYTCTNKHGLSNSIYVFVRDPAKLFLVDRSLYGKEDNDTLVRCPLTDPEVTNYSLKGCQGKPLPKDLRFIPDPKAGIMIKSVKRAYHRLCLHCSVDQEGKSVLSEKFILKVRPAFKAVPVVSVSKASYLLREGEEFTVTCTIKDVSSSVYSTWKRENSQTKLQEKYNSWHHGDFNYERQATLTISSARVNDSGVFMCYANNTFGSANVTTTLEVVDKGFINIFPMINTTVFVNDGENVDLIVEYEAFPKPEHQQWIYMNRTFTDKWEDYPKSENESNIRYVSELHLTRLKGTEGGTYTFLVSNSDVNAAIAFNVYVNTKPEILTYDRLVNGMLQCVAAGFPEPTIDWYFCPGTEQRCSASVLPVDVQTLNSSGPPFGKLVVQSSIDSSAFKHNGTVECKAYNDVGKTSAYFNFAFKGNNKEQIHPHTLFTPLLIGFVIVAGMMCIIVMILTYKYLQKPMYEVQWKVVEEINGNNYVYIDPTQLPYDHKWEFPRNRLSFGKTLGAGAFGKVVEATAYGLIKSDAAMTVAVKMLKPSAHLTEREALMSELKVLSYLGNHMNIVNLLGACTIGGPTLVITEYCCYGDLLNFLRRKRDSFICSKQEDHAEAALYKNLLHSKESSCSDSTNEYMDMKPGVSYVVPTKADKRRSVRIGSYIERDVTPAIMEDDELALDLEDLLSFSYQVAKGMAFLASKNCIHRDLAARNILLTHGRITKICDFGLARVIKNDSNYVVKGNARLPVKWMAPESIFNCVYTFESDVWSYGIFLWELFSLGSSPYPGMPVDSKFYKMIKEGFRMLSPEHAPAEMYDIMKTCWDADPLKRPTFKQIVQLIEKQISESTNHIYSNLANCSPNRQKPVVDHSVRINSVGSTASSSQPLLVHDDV
Procedure: as §1, with “glycol-bis(β-aminoethyl” for “glycol-bis(8-aminoethyl”, “(EGTA),” for “(EGTA), manganese (II) chloride (MnCl2),”, “c-Kit (D816V)” for “c-Kit”
as §2, with “c-Kit (D816V)” for “c-Kit”, “Promega's ADP-GIoTM” for “Promega's ADP-Glo™”, “assay, 2.5ng” for “assay, 100ng”, “ATP (15” for “ATP (50”, “BSA; 50 μM DTT).” for “BSA; 50μM DTT; 2mM MnCl2).”

recombinant human PDGFRα = target: T3, recombinant human PDGFRα (Homo sapiens, UniProt P16234); test: PDGFRα Kinase Assay (ADP-Glo); format: biochemical; details: In vitro kinase activity, read-out: PDGFRa IC50
T3 construct: purchased Signalchem
T3 sequence (P16234 24-1089): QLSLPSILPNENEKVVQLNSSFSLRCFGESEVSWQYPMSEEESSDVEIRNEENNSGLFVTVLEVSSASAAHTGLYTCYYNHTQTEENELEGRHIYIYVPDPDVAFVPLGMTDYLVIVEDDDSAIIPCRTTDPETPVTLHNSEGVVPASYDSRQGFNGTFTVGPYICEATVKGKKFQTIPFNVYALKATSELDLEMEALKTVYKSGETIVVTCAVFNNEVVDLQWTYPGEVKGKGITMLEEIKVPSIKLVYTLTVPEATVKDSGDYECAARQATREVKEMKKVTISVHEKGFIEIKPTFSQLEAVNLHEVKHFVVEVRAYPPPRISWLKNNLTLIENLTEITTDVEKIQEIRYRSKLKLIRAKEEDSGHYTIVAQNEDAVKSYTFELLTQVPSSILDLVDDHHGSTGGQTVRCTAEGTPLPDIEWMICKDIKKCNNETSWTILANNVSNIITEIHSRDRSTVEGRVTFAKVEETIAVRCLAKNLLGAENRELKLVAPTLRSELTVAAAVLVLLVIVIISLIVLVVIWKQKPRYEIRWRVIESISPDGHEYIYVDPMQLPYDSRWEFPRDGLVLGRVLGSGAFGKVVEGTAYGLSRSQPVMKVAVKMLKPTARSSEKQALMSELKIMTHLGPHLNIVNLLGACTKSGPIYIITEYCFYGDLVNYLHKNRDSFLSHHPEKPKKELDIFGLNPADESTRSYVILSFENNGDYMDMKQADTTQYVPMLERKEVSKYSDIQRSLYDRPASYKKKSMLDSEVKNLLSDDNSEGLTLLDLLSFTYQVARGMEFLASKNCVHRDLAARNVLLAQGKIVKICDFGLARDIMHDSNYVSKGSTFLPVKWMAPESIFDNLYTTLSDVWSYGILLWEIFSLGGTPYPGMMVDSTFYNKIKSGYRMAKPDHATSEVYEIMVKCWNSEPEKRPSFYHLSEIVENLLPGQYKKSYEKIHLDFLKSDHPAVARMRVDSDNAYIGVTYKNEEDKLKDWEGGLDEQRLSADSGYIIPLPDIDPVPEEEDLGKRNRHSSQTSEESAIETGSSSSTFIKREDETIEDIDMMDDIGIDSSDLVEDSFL
Procedure: as §1, with “glycol-bis(p-aminoethyl” for “glycol-bis(8-aminoethyl”, “(EGTA),” for “(EGTA), manganese (II) chloride (MnCl2),”, “PDGFRα Kinase” for “c-Kit kinase”
(§3) PDGFRα kinase activity was measured by Promega's ADP-Glo™ Assay. In this assay, 40ng of recombinant human PDGFRα is incubated with 5 μL of compounds (0.5% DMSO), 5 μL of Poly (4:1 Glu, Tyr) peptide (100 ng/μl) and 5 μL of ATP (25 pM) in buffer (50 mM HEPES, pH7.5; 10 mM MgCl2; 1 mM EGTA; 0.05% BSA; 50 μM DTT). The assay was started by incubating the reaction mixture in a 96-well plate at 30° C. for 60-min. After the incubation, 25 μL ADP-Glo reagent was added and the reaction was incubated at room temperature for 40-min to stop the reaction and degrade residual ATP. The ADP product was then converted to ATP by adding 50 μL per well of detection reagent. Luminescence was detected after 30-min room temperature incubation with the Molecular device I3X plate reader. The IC50 values were calculated from a series of percent inhibition values determined at a range of inhibitor concentration using software routines as implemented in the GraphPad Prism 8 software and Sigma Plot 13.0.

[2] = target: T4, recombinant human PDGFRα (D842V) (Homo sapiens, UniProt P16234, D842V); test: PDGFRα (D842V) Kinase Assay (ADP-Glo); format: biochemical; details: In vitro kinase activity
T4 construct: purchased Signalchem
T4 sequence (P16234 24-1089 D842V): as the sequence (P16234 24-1089) above, with D819V counted along it
Procedure: ADP-Glo assay kit was purchased from Promega. Magnesium chloride (MgCl2), ethylene glycol-bis(p-aminoethyl ether)-N, N, N′, N′-tetraacetic acid (EGTA), bovine serum albumin (BSA), 1,4-dithiothreitol (DTT) and dimethyl sulfoxide (DMSO) were purchased from Sigma-Aldrich. HEPES buffer was purchased from Gibco. PDGFRα (D842V) Kinase and poly (4:1 Glu, Tyr) peptide were purchased from Signalchem.
as §3, with “PDGFRα (D842V)” for “PDGFRα”, “10 ng” for “40ng”, “([…]” for “(25”, “[…]” for “50 μM”, “120-min.” for “60-min.”

[3] = test system: K562 human leukemia cell line; test: K562 Cell Proliferation Assay (MTS); format: cell-based; details: K562 cells, 48 hr incubation, MTS cell viability
Procedure: K562 human leukemia cell line purchased from Korean cell line bank (KCLB) and were cultured in Roswell Park Memorial Institute (RPMI) 1640 Medium supplemented with 10% fetal bovine serum (FBS) and 1% penicillin-streptomycin in a humidified incubator in an atmosphere of 5% CO2 at 37° C. Cells were seeded in 96-well plates at a density of 2×10^3 cells/well in 100 […] media. Compounds were diluted as two times concentration in 100 μl of media and added to each well. Compounds were 5-fold serially diluted for 6 points and treated from 5 μM to 1.6 nM in K562 cells. After 48 hr incubation, Compound treated cells were analyzed for anti-proliferation assay. Cell viability was investigated using the Cell Titer 96 Aqueous One Solution Reagent. Briefly, 200 μl of media were supplemented with 40 μl of MTS solution, incubated for 4hr, and then the absorbance was recorded at 490 nm with a 96-well plate reader. G150 values were calculated from a series of percent of cell viability at a range of compound concentration. GraphPad Prism 8 software or SigmaPlot 13.0 was used to generate G150 values.

T1 sequence (P10721 26-976): as the sequence (P10721 26-976 D816V) above, with V791D counted along it

Row | IC50 (recombinant human c-Kit) | IC50 [1] | IC50 (recombinant human PDGFRα) | IC50 [2] | IC50 [3] | SMILES
1 | > 1000 nM | 101 to 1000 nM | 101 to 1000 nM | 10 to 100 nM | 101 to 1000 nM | O=C(Nc1cn2cc(-c3cccc(F)c3CO)ccc2n1)[C@@H]1C[C@@H]1F [Example 57, (1 S,2 S)-2-fluoro-N-(6-(3-fluoro-2-(hydroxymethyl)phenyl)imidazo[1,2-a]pyridin-2-yl)cyclopropane-1-carboxamide]
2 | > 1000 nM | > 1000 nM | > 1000 nM | > 1000 nM | – | NCc1c(F)cccc1-c1ccc2nc(NC(=O)[C@@H]3C[C@@H]3F)cn2c1 [Example 74, (1 S,2 S)-N-(6-(2-(aminomethyl)-3-fluorophenyl)imidazo[1,2-a]pyridin-2-yl)-2-fluorocyclopropanecarboxamide]
3 | > 1000 nM | > 1000 nM | > 1000 nM | > 1000 nM | – | CC(=O)NCc1c(F)cccc1-c1ccc2nc(NC(=O)[C@@H]3C[C@@H]3F)cn2c1 [Example 75, (1 S,2 S)-N-(6-(2-(acetamidomethyl)-3-fluorophenyl)imidazo[1,2-a]pyridin-2-yl)-2-fluorocyclopropanecarboxamide]
4 | > 1000 nM | > 1000 nM | > 1000 nM | > 1000 nM | – | CNCc1c(F)cccc1-c1ccc2nc(NC(=O)[C@@H]3C[C@@H]3F)cn2c1 [Example 80, (1 S,2 S)-2-fluoro-N-(6-(3-fluoro-2-((methylamino)methyl)phenyl)imidazo[1,2-a]pyridin-2-yl)cyclopropanecarboxamide]
5 | > 1000 nM | > 1000 nM | > 1000 nM | > 1000 nM | – | CC(C)NCc1c(F)cccc1-c1ccc2nc(NC(=O)[C@@H]3C[C@@H]3F)cn2c1 [Example 81, (1 S,2 S)-2-fluoro-N-(6-(3-fluoro-2-((isopropylamino)methyl)phenyl)imidazo[1,2-a]pyridin-2-yl)cyclopropanecarboxamide]
6 | > 1000 nM | > 1000 nM | 101 to 1000 nM | 101 to 1000 nM | – | COCCOCc1c(F)cccc1-c1ccc2nc(NC(=O)[C@@H]3C[C@@H]3F)cn2c1 [Example 82]
7 | > 1000 nM | > 1000 nM | 101 to 1000 nM | 101 to 1000 nM | – | O=C(Nc1cn2cc(-c3cccc(F)c3COCCO)ccc2n1)[C@@H]1C[C@@H]1F [Example 83, (1 S,2 S)-2-fluoro-N-(6-(3-fluoro-2-((2-hydroxyethoxy)methyl)phenyl)imidazo[1,2-a]pyridin-2-yl)cyclopropanecarboxamide]
